In the NIST ThermoML archive (doi:10.1021/je800046k):

Test: xn = mol fraction of the nth substance listed
Settings: for surface tension liquid-gas: Pendant drop shape; for mass density: 101 kPa, Liquid

Cc1ccc(C)c(C)c1 [1,2,4-trimethylbenzene] + CC(=O)OC(C)C
Settings	mass density [kg/m3]	surface tension liquid-gas [mN/m]
298.15 K, x2 = 0	871.71	29.3
298.15 K, x2 = 0.0492	871.44	28.8
298.15 K, x2 = 0.101	871.17	28.25
298.15 K, x2 = 0.1507	870.9	27.69
298.15 K, x2 = 0.1995	870.64	27.13
298.15 K, x2 = 0.251	870.36	26.6
298.15 K, x2 = 0.3006	870.1	26.09
298.15 K, x2 = 0.3513	869.83	25.6
298.15 K, x2 = 0.4008	869.56	25.15
298.15 K, x2 = 0.45	869.3	24.75
298.15 K, x2 = 0.4998	869.03	24.34
298.15 K, x2 = 0.5498	868.76	23.99
298.15 K, x2 = 0.6007	868.49	23.64
298.15 K, x2 = 0.6492	868.23	23.33
298.15 K, x2 = 0.7004	867.95	23.05
298.15 K, x2 = 0.7501	867.68	22.78
298.15 K, x2 = 0.7968	867.42	22.56
298.15 K, x2 = 0.8495	867.12	22.34
298.15 K, x2 = 0.8995	866.84	22.15
298.15 K, x2 = 0.9492	866.55	21.99
308.15 K, x2 = 0	863.68	28.24
308.15 K, x2 = 0.0488	863.27	27.69
308.15 K, x2 = 0.0999	862.84	27.12
308.15 K, x2 = 0.1499	862.42	26.56
308.15 K, x2 = 0.2002	861.99	26
308.15 K, x2 = 0.2504	861.56	25.48
308.15 K, x2 = 0.3001	861.13	24.96
308.15 K, x2 = 0.3519	860.67	24.47
308.15 K, x2 = 0.4	860.24	24.04
308.15 K, x2 = 0.45	859.79	23.62
308.15 K, x2 = 0.4964	859.37	23.24
308.15 K, x2 = 0.5495	858.89	22.86
308.15 K, x2 = 0.6008	858.42	22.51
308.15 K, x2 = 0.6499	857.96	22.21
308.15 K, x2 = 0.7004	857.49	21.88
308.15 K, x2 = 0.7494	857.03	21.67
308.15 K, x2 = 0.7986	856.55	21.43
308.15 K, x2 = 0.85	856.05	21.2
308.15 K, x2 = 0.8997	855.56	21.05
308.15 K, x2 = 0.9498	855.05	20.89
313.15 K, x2 = 0	859.58	27.71
313.15 K, x2 = 0.0494	859.1	27.14
313.15 K, x2 = 0.0983	858.61	26.56
313.15 K, x2 = 0.1504	858.09	26
313.15 K, x2 = 0.1999	857.59	25.44
313.15 K, x2 = 0.2506	857.07	24.93
313.15 K, x2 = 0.3004	856.55	24.41
313.15 K, x2 = 0.3508	856.02	23.92
313.15 K, x2 = 0.3995	855.5	23.51
313.15 K, x2 = 0.4493	854.97	23.08
313.15 K, x2 = 0.4992	854.43	22.65
313.15 K, x2 = 0.5492	853.88	22.29
313.15 K, x2 = 0.6	853.32	21.94
313.15 K, x2 = 0.6493	852.77	21.65
313.15 K, x2 = 0.6995	852.2	21.33
313.15 K, x2 = 0.7501	851.62	21.09
313.15 K, x2 = 0.8	851.04	20.88
313.15 K, x2 = 0.8504	850.44	20.65
313.15 K, x2 = 0.9004	849.84	20.52
313.15 K, x2 = 0.9478	849.26	20.37
